# Measurements: the supplement of paper PMC10733146
# Assays:
# Assay in all cases: viability relative to DMSO control (fraction); higher = less drug effect (more viable cells)
# Settings in all cases: 48 h
# Obatoclax mesylate = compound: COC1=CC(c2cc3ccccc3[nH]2)=N/C1=C\c1[nH]c(C)cc1C [Obatoclax mesylate]
# In short: (§1)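 Using 384-well plates with compounds already plated at five concentrations, one well per concentration, 4 × 10^4 primary mononuclear tumour cells were added per well. Cells were Ficoll-isolated from blood or bone marrow or came from processed lymph node, fresh or cryopreserved. They were kept for 48 h at 37 °C and 5% CO2 in RPMI-1640 supplemented with penicillin/streptomycin, L-glutamine and human serum, and viability was read as CellTiter-Glo luminescence relative to the median of 16 inner DMSO wells.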
# Imatinib = compound: Cc1ccc(NC(=O)c2ccc(CN3CCN(C)CC3)cc2)cc1Nc1nccc(-c2cccnc2)n1 [Imatinib]
# In short: as §1
# Idarubicin = compound: CC(=O)[C@]1(O)Cc2c(O)c3c(c(O)c2[C@@H](O[C@H]2C[C@H](N)[C@H](O)[C@H](C)O2)C1)C(=O)c1ccccc1C3=O [Idarubicin]
# In short: as §1
# Panobinostat = compound: Cc1[nH]c2ccccc2c1CCNCc1ccc(/C=C/C(=O)NO)cc1 [Panobinostat]
# In short: as §1
# AZD7762 = compound: NC(=O)Nc1cc(-c2cccc(F)c2)sc1C(=O)N[C@H]1CCCNC1 [AZD7762]
# In short: as §1
# Vorinostat = compound: O=C(CCCCCCC(=O)Nc1ccccc1)NO [Vorinostat]
# In short: as §1
# Ribociclib = compound: CN(C)C(=O)c1cc2cnc(Nc3ccc(N4CCNCC4)cn3)nc2n1C1CCCC1 [Ribociclib]
# In short: as §1
# Pralatrexate = compound: C#CCC(Cc1cnc2nc(N)nc(N)c2n1)c1ccc(C(=O)N[C@@H](CCC(=O)O)C(=O)O)cc1 [Pralatrexate]
# In short: as §1
# Pentostatin = compound: OC[C@H]1O[C@@H](n2cnc3c2N=CNC[C@H]3O)C[C@@H]1O [Pentostatin]
# In short: as §1
# Iniparib = compound: NC(=O)c1ccc(I)c([N+](=O)[O-])c1 [Iniparib]
# In short: as §1
# ERK5-IN-1 = compound: CCOc1cc(C(=O)N2CCC(N3CCN(C)CC3)CC2)ccc1Nc1ncc2c(n1)N(C1CCCC1)c1ccccc1C(=O)N2C [ERK5-IN-1]
# In short: as §1
# TMP269 = compound: O=C(NCC1(c2nc(-c3ccccc3)cs2)CCOCC1)c1cccc(-c2noc(C(F)(F)F)n2)c1 [TMP269]
# In short: as §1
# Cladribine = compound: Nc1nc(Cl)nc2c1ncn2[C@H]1C[C@H](O)[C@@H](CO)O1 [Cladribine]
# In short: as §1
# Birinapant = compound: CC[C@H](NC(=O)[C@H](C)NC)C(=O)N1C[C@@H](O)C[C@H]1Cc1c(-c2[nH]c3cc(F)ccc3c2C[C@@H]2C[C@H](O)CN2C(=O)[C@H](CC)NC(=O)[C@H](C)NC)[nH]c2cc(F)ccc12 [Birinapant]
# In short: as §1
# MLN-120B = compound: COc1c(Cl)cc2c([nH]c3cnccc32)c1NC(=O)c1cccnc1C [MLN-120B]
# In short: as §1
test system,measurement,setting,value
primary AML patient cells (S025),viability,Obatoclax mesylate; 0.024 µM,1.07
same,viability,Obatoclax mesylate; 0.12 µM,0.965
same,viability,Obatoclax mesylate; 0.6 µM,0.893
same,viability,Obatoclax mesylate; 3 µM,0.655
same,viability,Obatoclax mesylate; 15 µM,0.242
same,viability,Imatinib; 0.08 µM,1
same,viability,Imatinib; 0.4 µM,1.16
same,viability,Imatinib; 2 µM,1.07
same,viability,Imatinib; 10 µM,1.32
same,viability,Idarubicin; 0.024 µM,0.407
same,viability,Idarubicin; 0.12 µM,0.541
same,viability,Idarubicin; 0.6 µM,0.0328
same,viability,Idarubicin; 3 µM,0.0323
same,viability,Idarubicin; 15 µM,0.0209
same,viability,Panobinostat; 0.00064 µM,0.915
same,viability,Panobinostat; 0.0032 µM,0.703
same,viability,Panobinostat; 0.016 µM,0.356
same,viability,Panobinostat; 0.08 µM,0.432
same,viability,Panobinostat; 0.4 µM,0.497
same,viability,AZD7762; 0.024 µM,0.942
same,viability,AZD7762; 0.12 µM,0.857
same,viability,AZD7762; 0.6 µM,0.878
same,viability,AZD7762; 3 µM,0.87
same,viability,AZD7762; 15 µM,0.911
same,viability,Vorinostat; 0.016 µM,0.995
same,viability,Vorinostat; 0.08 µM,0.978
same,viability,Vorinostat; 0.4 µM,0.817
same,viability,Vorinostat; 2 µM,0.485
same,viability,Vorinostat; 10 µM,0.382
same,viability,Ribociclib; 0.024 µM,1.08
same,viability,Ribociclib; 0.12 µM,1.13
same,viability,Ribociclib; 0.6 µM,1.06
same,viability,Ribociclib; 3 µM,0.91
same,viability,Ribociclib; 15 µM,0.931
same,viability,Pralatrexate; 0.024 µM,0.845
same,viability,Pralatrexate; 0.12 µM,0.794
same,viability,Pralatrexate; 0.6 µM,0.814
same,viability,Pralatrexate; 3 µM,0.805
same,viability,Pralatrexate; 15 µM,0.783
same,viability,Pentostatin; 0.03 µM,0.954
same,viability,Pentostatin; 0.15 µM,0.972
same,viability,Pentostatin; 0.75 µM,1.02
same,viability,Pentostatin; 3.75 µM,0.932
same,viability,Pentostatin; 18.76 µM,0.861
same,viability,Iniparib; 0.024 µM,1.1
same,viability,Iniparib; 0.12 µM,1.03
same,viability,Iniparib; 0.6 µM,0.995
same,viability,Iniparib; 3 µM,0.994
same,viability,Iniparib; 15 µM,0.957
same,viability,ERK5-IN-1; 0.024 µM,0.907
same,viability,ERK5-IN-1; 0.12 µM,0.963
same,viability,ERK5-IN-1; 0.6 µM,0.864
same,viability,ERK5-IN-1; 3 µM,0.617
same,viability,ERK5-IN-1; 15 µM,0.212
same,viability,TMP269; 0.024 µM,0.976
same,viability,TMP269; 0.12 µM,1.11
same,viability,TMP269; 0.6 µM,1
same,viability,TMP269; 3 µM,1.13
same,viability,TMP269; 15 µM,1.02
same,viability,Cladribine; 0.024 µM,0.344
same,viability,Cladribine; 0.12 µM,0.356
same,viability,Cladribine; 0.6 µM,0.288
same,viability,Cladribine; 3 µM,0.288
same,viability,Cladribine; 15 µM,0.301
same,viability,Birinapant; 0.0008 µM,0.9
same,viability,Birinapant; 0.004 µM,0.807
same,viability,Birinapant; 0.02 µM,0.45
same,viability,Birinapant; 0.1 µM,0.249
same,viability,Birinapant; 0.5 µM,0.165
primary CLL patient cells (S031),viability,MLN-120B; 0.024 µM,0.859
same,viability,MLN-120B; 0.12 µM,0.889
same,viability,MLN-120B; 0.6 µM,0.836
same,viability,MLN-120B; 3 µM,0.813
same,viability,MLN-120B; 15 µM,0.719
same,viability,Obatoclax mesylate; 0.024 µM,0.88
same,viability,Obatoclax mesylate; 0.12 µM,0.863
same,viability,Obatoclax mesylate; 0.6 µM,0.738
same,viability,Obatoclax mesylate; 3 µM,0.384
same,viability,Obatoclax mesylate; 15 µM,0.0738
same,viability,Idarubicin; 0.024 µM,0.346
same,viability,Idarubicin; 0.12 µM,0.162
same,viability,Idarubicin; 0.6 µM,0.0377
same,viability,Idarubicin; 3 µM,0.0133
same,viability,Idarubicin; 15 µM,0.00892
same,viability,Panobinostat; 0.00064 µM,0.951
same,viability,Panobinostat; 0.0032 µM,0.771
same,viability,Panobinostat; 0.016 µM,0.105
same,viability,Panobinostat; 0.08 µM,0.0334
same,viability,Panobinostat; 0.4 µM,0.0776
same,viability,AZD7762; 0.024 µM,0.458
same,viability,AZD7762; 0.12 µM,0.378
same,viability,AZD7762; 0.6 µM,0.236
same,viability,AZD7762; 3 µM,0.156
same,viability,AZD7762; 15 µM,0.163
same,viability,Vorinostat; 0.016 µM,0.963
same,viability,Vorinostat; 0.08 µM,0.995
same,viability,Vorinostat; 0.4 µM,0.879
same,viability,Vorinostat; 2 µM,0.197
same,viability,Vorinostat; 10 µM,0.0346
same,viability,Ribociclib; 0.024 µM,0.92
same,viability,Ribociclib; 0.12 µM,0.861
same,viability,Ribociclib; 0.6 µM,0.828
same,viability,Ribociclib; 3 µM,0.639
same,viability,Ribociclib; 15 µM,0.377
same,viability,Pralatrexate; 0.024 µM,1.1
same,viability,Pralatrexate; 0.12 µM,1.08
same,viability,Pralatrexate; 0.6 µM,1.04
same,viability,Pralatrexate; 3 µM,1.03
same,viability,Pralatrexate; 15 µM,1.01
same,viability,Pentostatin; 0.03 µM,0.885
same,viability,Pentostatin; 0.15 µM,0.779
same,viability,Pentostatin; 0.75 µM,0.828
same,viability,Pentostatin; 3.75 µM,0.705
same,viability,Pentostatin; 18.76 µM,0.739
same,viability,Iniparib; 0.024 µM,1.09
same,viability,Iniparib; 0.12 µM,1.07
same,viability,Iniparib; 0.6 µM,1.14
same,viability,Iniparib; 3 µM,1.05
same,viability,Iniparib; 15 µM,0.841
same,viability,ERK5-IN-1; 0.024 µM,0.949
same,viability,ERK5-IN-1; 0.12 µM,0.925
same,viability,ERK5-IN-1; 0.6 µM,0.839
same,viability,ERK5-IN-1; 3 µM,0.651
same,viability,ERK5-IN-1; 15 µM,0.223
same,viability,TMP269; 0.024 µM,0.914
same,viability,TMP269; 0.12 µM,0.904
same,viability,TMP269; 0.6 µM,0.989
same,viability,TMP269; 3 µM,0.939
same,viability,TMP269; 15 µM,0.992
same,viability,Cladribine; 0.024 µM,0.442
same,viability,Cladribine; 0.12 µM,0.115
same,viability,Cladribine; 0.6 µM,0.0501
same,viability,Cladribine; 3 µM,0.0402
same,viability,Cladribine; 15 µM,0.031
same,viability,Birinapant; 0.0008 µM,0.788
same,viability,Birinapant; 0.004 µM,0.923
same,viability,Birinapant; 0.02 µM,0.919
same,viability,Birinapant; 0.1 µM,0.857
same,viability,Birinapant; 0.5 µM,0.984
